Assay results from US8399435B2, “Compounds for the treatment of proliferative disorders” (Synta Pharmaceuticals Corp., priority 2005, dated 2013).

Key:
[1] = tested on: MES-SA/DX5 (uterine sarcoma, multidrug resistant); experiment: In vitro cytotoxicity, MTS assay, multidrug resistant MES-SA/DX5 cells; type: cell-based, human; settings: for IC50: Homo sapiens, MES/DX5, MDR-1, 72 hours incubation; for Activity against multidrug resistant cell line MES/SA-DX compared with Taxol: comparison with Taxol
Experimental: (§1) The in vitro cytotoxicity of the compounds of the invention was determined in the following human cell lines: HL-60 ([…]), MES-SA and MES-SA/DX5 (uterine sarcoma). MES-SA is a model of uterine sarcoma, and the cell are sensitive to a number of chemotherapeutic agents including doxorubicin, dactinomycin, mitomycin C, taxol and bleomycin, but resistant to vinblastine and cisplatin. MES-SA/Dx5 was established in the presence of increasing concentrations of doxorubicin. […] All cells were purchased from ATCC.
(§2) The cell lines were maintained in RPMI1640 (GIBCO) supplemented with 10% FCS, 100 units/mL penicillin, 100 ug/ml streptomycin, and 2 mM L-glutamine. Cells were split every third day and diluted to a concentration of 2×10^5 cells/mL one day before the experiment was performed. All experiments were performed on exponentially growing cell cultures. Cell densities were 2.5×10^4 cells/mL in all experiments.
(§3) Compounds of the invention were prepared by dissolving the compound at a concentration of 10 mM in 100% DMSO. Final concentrations 10, 1, 0.1, 0.01 and 0.001 μM were obtained by diluting the stock solution directly into the tissue culture medium. Cells were incubated with varying concentrations of compound 3 for 72 hours and the IC50 was determined by MTS (i.e. […]) assay. IC50 in this context stands for the concentration of compound required to inhibit 50% tumor cell growth.

[2] = tested on: HL-60 (T-cell leukemia); experiment: In vitro cytotoxicity, MTS assay, HL-60 cells; type: cell-based; settings: Homo sapiens, HL60, Leukemia, 72 hours incubation, concentration to inhibit 50% tumor cell growth
Experimental: as §1, §2, §3

[3] = tested on: MES-SA (uterine sarcoma); experiment: In vitro cytotoxicity, MTS assay, MES-SA cells; type: cell-based; settings: Homo sapiens, Uterine Carcinoma, 72 hours incubation
Experimental: as §1, §2, §3

| Compound | IC50 [1] [nM] | Activity against multidrug resistant cell line MES/SA-DX compared with Taxol [1] | IC50 [2] [nM] | IC50 [3] [nM] |
| --- | --- | --- | --- | --- |
| COc1ccc(-c2cnsc2-c2cc(OC)c(OC)c(OC)c2)cc1 [Compound 3, 4-(4-methoxy-phenyl)-5-(3,4,5-trimethoxy-phenyl)-isothiazole] | 80 | much greater activity than Taxol | 474 | 100 |
| COc1ccc(-c2cnsc2-c2cc(OC)c(OC)c(OC)c2)cc1N [Compound 64, 2-Methoxy-5-[5-(3,4,5-trimethoxy-phenyl)-isothiazol-4-yl]-phenylamine] | 33 | much greater activity than Taxol | 25 | 42 |
| CC(=O)O[C@H]1C(=O)[C@@]2(C)[C@H]([C@H](OC(=O)c3ccccc3)[C@]3(O)C[C@H](OC(=O)[C@H](O)[C@@H](NC(=O)c4ccccc4)c4ccccc4)C(C)=C1C3(C)C)[C@]1(OC(C)=O)CO[C@@H]1C[C@@H]2O [Taxol, reference compound] | 10000 |  | 5 | 5 |
